≈ marks a conversion by molar mass, not a printed value.

Test in all cases: microbe, parasite or virus in culture
Assay [1] has as its system E. cloacae strain 272 (MLST 78, ESBL). It counts as cell-based. The following applies: Enterobacter cloacae. The method in brief:
(§1)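 MICs were determined in triplicate against WGS-characterized OXA-48-positive clinical isolates, with EUCAST 13.0 breakpoints applied. Each inhibitor was tested at 4 mg/L combined with ertapenem or ceftazidime as reporter substrates; compounds were also tested alone.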

Assay [2] has as its system K. pneumoniae strain 125 (MLST 307, ESBL). It counts as cell-based. The note with it: Klebsiella pneumoniae. In short, it runs like this: as §1
Assay [3] deals with E. coli strain 224 (MLST 127, No ESBL). In kind it is cell-based. The note with it: Escherichia coli; E. coli 224; β-lactamase inhibitor alone; read-out: MIC. The method in brief: as §1
Assay [4] relates to K. pneumoniae strain 413 (MLST 147, ESBL). In kind it is cell-based. The following applies: Klebsiella pneumoniae. The method in brief: as §1
For assay [5], the system named is E. coli strain 264 (MLST 131, No ESBL). In kind it is cell-based. The following applies: Escherichia coli; E. coli 264; β-lactamase inhibitor alone; read-out: MIC. In short, it runs like this: as §1
The subject of assay [6] is K. pneumoniae strain 170 (MLST 307, No ESBL). It counts as cell-based. The following applies: Klebsiella pneumoniae; K. pneumoniae 170; β-lactamase inhibitor alone; read-out: MIC. The method in brief: as §1
The subject of assay [7] is E. coli strain 103 (MLST 10, ESBL). In kind it is cell-based. The note with it: Escherichia coli. The method in brief: as §1
The subject of assay [8] is K. pneumoniae strain 23 (MLST 392, ESBL). It counts as cell-based. The following applies: Klebsiella pneumoniae. In short, it runs like this: as §1
Assay [9] has as its system E. coli strain 177 (MLST 131, ESBL). It counts as cell-based. The following applies: Escherichia coli. The method in brief: as §1
The test system of assay [10] is E. cloacae strain 235 (MLST 171, ESBL). It counts as cell-based. The following applies: Enterobacter cloacae. The method in brief:
as §1

The subject of assay [11] is E. cloacae strain 281 (MLST 78, No ESBL). In kind it is cell-based. The note with it: Enterobacter cloacae; E. cloacae 281; β-lactamase inhibitor alone; read-out: MIC. In short, it runs like this:
as §1

Assay [12] deals with K. pneumoniae strain 497 (MLST 11, No ESBL). In kind it is cell-based. The following applies: Klebsiella pneumoniae; K. pneumoniae 497; β-lactamase inhibitor alone; read-out: MIC.
Assay [13] has as its system K. pneumoniae strain 237 (MLST 147, No ESBL). It counts as cell-based. The following applies: Klebsiella pneumoniae; K. pneumoniae 237; β-lactamase inhibitor alone; read-out: MIC. The method in brief: as §1
The subject of assay [14] is K. pneumoniae strain 194 (MLST 392, No ESBL). In kind it is cell-based. The note with it: Klebsiella pneumoniae; K. pneumoniae 194; β-lactamase inhibitor alone; read-out: MIC. The method in brief: as §1
The test system of assay [15] is E. cloacae strain 231 (MLST 171, No ESBL). It counts as cell-based. The note with it: Enterobacter cloacae; E. cloacae 231; β-lactamase inhibitor alone; read-out: MIC. The method in brief: as §1
Assay [16] concerns K. pneumoniae strain 238 (MLST 15, ESBL). It counts as cell-based. The following applies: Klebsiella pneumoniae. The method in brief: as §1
The test system of assay [17] is K. pneumoniae strain 19 (MLST 11, ESBL). It counts as cell-based. The note with it: Klebsiella pneumoniae. The method in brief:
as §1

In assay [18] the test system is K. pneumoniae strain 71 (MLST 15, No ESBL). In kind it is cell-based. The note with it: Klebsiella pneumoniae; K. pneumoniae 71; β-lactamase inhibitor alone; read-out: MIC. The method in brief: as §1
Assay [19] has as its system E. coli HB4 ΔompC/F (CTX-M-14). In kind it is cell-based, Escherichia coli. The note with it: Escherichia coli.
The subject of assay [20] is E. coli HB4 ΔompC/F (CTX-M-14 + OXA-48). It counts as cell-based, Escherichia coli. The note with it: Escherichia coli. In short, it runs like this:
(§2)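 MICs were determined in triplicate for E. coli TG1 and HB4 transformants carrying OXA-48, alone or with CTX-M-14; HB4 is a low-permeability (ΔompC/F) background. Inhibitors were tested at 4 mg/L with ertapenem or ceftazidime as reporter substrates, and EUCAST 13.0 breakpoints applied.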

Assay [21] has as its system E. coli HB4 ΔompC/F (OXA-48). In kind it is cell-based, Escherichia coli. The note with it: Escherichia coli. In short, it runs like this:
as §2

Assay [22] concerns E. coli HB4 ΔompC/F. It counts as cell-based, Escherichia coli. The note with it: Escherichia coli. In short, it runs like this:
as §2

For the compound `NCCONC(=O)[C@@H]1CC[C@@H]2CN1C(=O)N2OS(=O)(=O)O` [Nacubactam, nacubactam], the MIC in assay [1] was 4 µg/mL; in assay [2], no less than 128 µg/mL; in assay [3], 8 µg/mL; in assay [4] it was no less than 128 µg/mL; in [5], 1 µg/mL; in [6] it was 4 µg/mL. Also, the MIC in [7] is 2 µg/mL; in assay [8], 2 µg/mL; in [9] it was 8 µg/mL; in [10], 8 µg/mL; in [11], 4 µg/mL; in [12], no less than 128 µg/mL. Also, the MIC in [13] is 1 µg/mL; in assay [14] it was 2 µg/mL; in [15] it was 1 µg/mL; in assay [16], 16 µg/mL; in [17] it was no less than 128 µg/mL; in [18], 16 µg/mL. For the same compound, the MIC in [19], in assay [20], in assay [21] and in [22] was 2 µg/mL (≈ 6.17 µM) each time.
Take `CC1=C[C@@H]2CN(C(=O)N2OS(=O)(=O)O)[C@@H]1C(N)=O` [Durlobactam, durlobactam]: the MIC in [1] was 1 µg/mL; in [2] it was 2 µg/mL; in assay [3], 0.25 µg/mL; in assay [4] it was 4 µg/mL; in assay [5], 0.25 µg/mL; in assay [6], 0.5 µg/mL. Moreover, the MIC in assay [7] is 0.25 µg/mL; in assay [8] it was 0.5 µg/mL; in [9] it was 2 µg/mL; in assay [10] it was 4 µg/mL; in assay [11], 4 µg/mL; in [12], 2 µg/mL. Moreover, the MIC amounted to 0.5 µg/mL in [13]; 1 µg/mL in [14]; 1 µg/mL in assay [15]; 0.5 µg/mL in assay [16]; 2 µg/mL in assay [17]; 2 µg/mL in [18]. Besides, the MIC in assay [19] was 1 µg/mL (≈ 3.61 µM); in assay [20] it was 1 µg/mL (≈ 3.61 µM); in assay [21] it was 1 µg/mL (≈ 3.61 µM); in assay [22], 0.5 µg/mL (≈ 1.8 µM).

(Values after publication PMC11823609, “Advancements in the fight against globally distributed OXA-48 carbapenemase: evaluating the new generation of carbapenemase inhibitors” (Antimicrobial Agents and Chemotherapy, 2025).)
